The values that follow come from ChEMBL document CHEMBL1201862, “PubChem BioAssay data set” (2004).

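All cell lines were grown in 96-well plates and treated with compound for 48 hours. GI50: concentration for 50% inhibition of growth.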 Calls of active or inactive are those of the source. Rule as the data show it: active = GI50 up to about 1.1 µM and inactive = higher. Bounds are passed on as bounds.

Some test systems named below: COLO 205; SF-539; T47D; SF-295; MDA-N; SF-268; PC-3; CCRF-CEM; HL-60; HOP-92; SNB-19; U-251; UO-31; HOP-62; UACC-257; UACC-62; DU-145; HCC 2998; M14; K562.
What all share (assay): NCI tumour cell line growth inhibition, 48 h

Turning to `CC(C)(C)CC(N)=O`, the GI50 with COLO 205, with SF-539, in the assay on T47D, with SF-295, in the assay with MDA-N and in the assay on SF-268 was > 100 µM (inactive) each time. The GI50 in the assay with PC-3, in the assay on CCRF-CEM, with HL-60, in the assay with HOP-92, in the assay with SNB-19 and in the assay on U-251 was > 100 µM (inactive) throughout. Besides, the GI50 with UO-31, with HOP-62, with UACC-257, with UACC-62, in the assay on DU-145 and with HCC 2998 was > 100 µM (inactive) in each case. The GI50 with M14 and in the assay with K562 was > 100 µM (inactive) in each case.

Take `CCOC(=O)c1sc2nc(SC)nc3c2c1NCN3c1ccc2c(c1)OCO2`: the GI50 in the assay with COLO 205 is 35.2 µM (inactive); with SF-539, 21.6 µM (inactive); in the assay on T47D it was 18.9 µM (inactive); in the assay with SF-295, 10.9 µM (inactive); in the assay on MDA-N, 44.3 µM (inactive); in the assay with SF-268, 3.42 µM (inactive). Also, the GI50 is 14.3 µM (inactive) in the assay on PC-3; 14.6 µM (inactive) in the assay with CCRF-CEM; 52 µM (inactive) in the assay with HL-60; 12.5 µM (inactive) in the assay on HOP-92; 11.4 µM (inactive) in the assay on SNB-19; 7.03 µM (inactive) with U-251. Moreover, the GI50 in the assay on UO-31 was 15.5 µM (inactive); with HOP-62, 5.93 µM (inactive); in the assay with UACC-257, > 100 µM (inactive); with UACC-62, 12.2 µM (inactive); in the assay on DU-145, 12.1 µM (inactive); in the assay on HCC 2998, 44.7 µM (inactive). Besides, the results for the GI50 with M14 and with K562 were 15.5 µM (inactive) and 35 µM (inactive), respectively.

On to `COC1CC(CC2CCC(C)C(C(C)C(=O)O)O2)OC2(OC(C)(C3CCC(C)(C4OC(C5OC(O)(CO)C(C)CC5C)CC4C)O3)CC2C)C1C` (stereo not given), for which the GI50 with COLO 205 was 0.116 µM (active); with SF-539 it was 0.19 µM (active); with T47D, 0.284 µM (active); in the assay with SF-295, 1.15 µM (inactive); in the assay with MDA-N it was 0.757 µM (active); with SF-268, 1.88 µM (inactive). In addition, the GI50 is 0.552 µM (active) in the assay on PC-3; 0.0228 µM (active) with CCRF-CEM; 0.0363 µM (active) with HL-60; 1.07 µM (active) in the assay with HOP-92; 0.359 µM (active) in the assay with SNB-19; 0.0836 µM (active) in the assay on U-251. In addition, the GI50 is 1.79 µM (inactive) in the assay with UO-31; 0.522 µM (active) in the assay on HOP-62; 0.0578 µM (active) with UACC-257; 1.61 µM (inactive) with UACC-62; 3.85 µM (inactive) in the assay with DU-145; 0.186 µM (active) with HCC 2998. The figures for the GI50 in the assay on M14 and with K562 were 1.8 µM (inactive) and 0.0502 µM (active), respectively.

Consider `NCC[Se][Se]CCN`, for which the GI50 was 4.06 µM (inactive) in the assay with COLO 205; 10.6 µM (inactive) in the assay on SF-539; 5.58 µM (inactive) in the assay with T47D; 3.2 µM (inactive) with SF-295; 10.9 µM (inactive) in the assay on MDA-N; 16 µM (inactive) in the assay with SF-268. For the same compound, the GI50 in the assay with PC-3 was 10.9 µM (inactive); with CCRF-CEM it was 5.12 µM (inactive); in the assay with HL-60, 1.8 µM (inactive); in the assay on HOP-92 it was 19.3 µM (inactive); in the assay on SNB-19, 8.47 µM (inactive); in the assay with U-251 it was 7.41 µM (inactive). Besides, the GI50 in the assay on UO-31 was 4.42 µM (inactive); in the assay on HOP-62 it was 8.67 µM (inactive); in the assay with UACC-257, 7.06 µM (inactive); with UACC-62 it was 17.3 µM (inactive); in the assay with DU-145 it was 11.6 µM (inactive); in the assay on HCC 2998, 11.9 µM (inactive). Besides, the GI50 is 3.83 µM (inactive) with M14 and 16.6 µM (inactive) with K562.

Consider `C[C@H]1COC2=C1C(=O)C(=O)c1c2ccc2c1CCCC2(C)C` [CRYPTOTANSHINONE], for which the GI50 in the assay with COLO 205 is 1.15 µM (inactive); in the assay on SF-539, 3.35 µM (inactive); in the assay with T47D, 9.46 µM (inactive); in the assay with SF-295 it was 1.68 µM (inactive); with MDA-N it was 1.61 µM (inactive); with SF-268, 1.9 µM (inactive). Further, the GI50 is 4.93 µM (inactive) with PC-3; 4.31 µM (inactive) in the assay with CCRF-CEM; 2.39 µM (inactive) in the assay on HL-60; 40.8 µM (inactive) with HOP-92; 2.52 µM (inactive) in the assay on SNB-19; 2 µM (inactive) in the assay with U-251. For the same compound, the GI50 with UO-31 was 4.7 µM (inactive); in the assay on HOP-62 it was 3.68 µM (inactive); with UACC-257 it was 1.95 µM (inactive); in the assay on UACC-62, 2.03 µM (inactive); in the assay with DU-145 it was 1.35 µM (inactive); in the assay with HCC 2998, 2.48 µM (inactive). Moreover, the GI50 is 1.03 µM (active) in the assay with M14 and 3.61 µM (inactive) with K562.
